Reference: patent publication US8008488B2 (Abbott GmbH & Co. KG, priority 2003, dated 2011)
Counter-ions that a name gives are not always drawn.

Key:
[1] = target: T1, human dopamine D2L receptors (long isoform) (Homo sapiens, UniProt P14416); assay: Dopamine D2L receptor binding, displacement of [125I]-iodospiperone; settings: *Ki(D2L)/Ki(D3), HEK-293 membranes, 0.01 nM [125I]-iodospiperone
T1 construct: expressed in transfected cells
How it was run: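 Triplicate incubations ran 60 min at 25 °C in pH 7.4 Tris buffer with 120 mM NaCl, 5 mM KCl, 2 mM CaCl2, 2 mM MgCl2 and 0.1% BSA. Bound radioactivity was collected by GF/B filtration and counted as dpm. Inhibition curves were fitted by iterative nonlinear regression.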

[2] = target: T2, human dopamine D3 receptors (Homo sapiens, UniProt P35462); assay: Dopamine D3 receptor binding, displacement of [125I]-iodosulpride; settings: membranes from HEK-293 cells with stably expressed human D3 receptors, 0.1 nM [125I]-iodosulpride
T2 construct: expressed in transfected cells
T2 sequence (P35462 whole entry): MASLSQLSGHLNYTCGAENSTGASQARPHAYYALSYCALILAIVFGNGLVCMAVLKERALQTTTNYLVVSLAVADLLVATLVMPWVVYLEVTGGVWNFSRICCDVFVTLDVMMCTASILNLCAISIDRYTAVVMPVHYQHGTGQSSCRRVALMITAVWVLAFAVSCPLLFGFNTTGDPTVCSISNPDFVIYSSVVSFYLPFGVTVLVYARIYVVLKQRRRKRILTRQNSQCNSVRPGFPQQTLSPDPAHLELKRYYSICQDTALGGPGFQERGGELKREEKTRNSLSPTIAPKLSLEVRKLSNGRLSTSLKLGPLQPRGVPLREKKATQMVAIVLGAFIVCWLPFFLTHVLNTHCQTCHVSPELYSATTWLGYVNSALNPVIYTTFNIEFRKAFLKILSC

T1 sequence (P14416 whole entry, canonical isoform): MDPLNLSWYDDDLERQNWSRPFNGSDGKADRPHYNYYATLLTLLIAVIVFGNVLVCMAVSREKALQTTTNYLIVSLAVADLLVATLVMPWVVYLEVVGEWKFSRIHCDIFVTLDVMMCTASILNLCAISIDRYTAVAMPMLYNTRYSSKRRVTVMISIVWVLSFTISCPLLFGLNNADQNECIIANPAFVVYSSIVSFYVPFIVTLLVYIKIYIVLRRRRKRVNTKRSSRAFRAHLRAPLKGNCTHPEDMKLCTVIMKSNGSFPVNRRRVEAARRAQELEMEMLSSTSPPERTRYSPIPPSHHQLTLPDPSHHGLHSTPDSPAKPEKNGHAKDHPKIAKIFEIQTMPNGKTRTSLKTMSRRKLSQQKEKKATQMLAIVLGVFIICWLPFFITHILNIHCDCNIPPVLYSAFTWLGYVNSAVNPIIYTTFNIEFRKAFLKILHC

SMILES	Selectivity D3 vs. D2L* [1]	Ki [2]
CCc1ccn(CCCCN2CCN(c3cc(C(F)(F)F)nc(C(C)(C)C)n3)CC2)c(=O)n1 [Example 95, 4-(2-tert-Butyl-6-trifluoromethylpyrimidin-4-yl)-1-[4-(4-ethyl-2-oxo-2H-pyrimidin-1-yl)butyl]piperazin-1-ium fumarate]	45	6.53 nM
CC(C)c1ccn(CCCCN2CCN(c3cc(C(F)(F)F)nc(C(C)(C)C)n3)CC2)c(=O)n1 [Example 97, 4-(2-tert-Butyl-6-trifluoromethylpyrimidin-4-yl)-1-[4-(4-isopropyl-2-oxo-2H-pyrimidin-1-yl)butyl]piperazin-1-ium fumarate]	58	4.26 nM
CCCc1cc(N2CCN(CCCCn3ccc(C4CCCCC4)nc3=O)CC2)nc(C(C)(C)C)n1 [Example 100, 4-(2-tert-Butyl-6-propylpyrimidin-4-yl)-1-[4-(4-cyclohexyl-2-oxo-2H-pyrimidin-1-yl)butyl]piperazin-1-ium fumarate]	51	1.38 nM
Cc1ccccc1N1CCN(CCCCn2cc(C)c(=O)[nH]c2=O)CC1 [Example 111, 5-Methyl-1-[4-(4-(o-tolyl)piperazin-1-yl)butyl]-1H-pyrimidine-2,4-dione]	30	6.8 nM
Cc1cn(CCCCN2CCN(c3cc(C(F)(F)F)cc(C(F)(F)F)c3)CC2)c(=O)[nH]c1=O [Example 125, 1-{4-[4-(3,5-Bis-trifluoromethylphenyl)piperazin-1-yl]butyl}-5-methyl-1H-pyrimidine-2,4-dione]	63	6.8 nM
Cc1cn(CCCCN2CCN(c3cccc(C(F)(F)F)c3)CC2)c(=O)[nH]c1=O [Example 129, 5-Methyl-1-{4-[4-(3-trifluoromethylphenyl)piperazin-1-yl]butyl}-1H-pyrimidine-2,4-dione]	48	1.3 nM
Cc1cn(CCCCN2CCN(c3ccc(F)cc3F)CC2)c(=O)[nH]c1=O [Example 131, 1-{4-[4-(2,4-Difluorophenyl)piperazin-1-yl]butyl}-5-methyl-1H-pyrimidine-2,4-dione]	30	25.7 nM
Cc1cc(C)cc(N2CCN(CCCCn3cc(C)c(=O)[nH]c3=O)CC2)c1 [Example 132, 1-{4-[4-(3,5-Dimethylphenyl)piperazin-1-yl]butyl}-5-methyl-1H-pyrimidine-2,4-dione]	34	5.5 nM
COc1cc(OC)cc(N2CCN(CCCCn3cc(C)c(=O)[nH]c3=O)CC2)c1 [Example 134, 1-{4-[4-(3,5-Dimethoxyphenyl)piperazin-1-yl]butyl}-5-methyl-1H-pyrimidine-2,4-dione]	55	13.1 nM

Further molecules by falling Ki [2], results first:

Selectivity D3 vs. D2L* [1]	Ki [2]	SMILES
36	4.28 nM	CC(=O)O.CC(C)(C)c1nc(N2CCN(CCCCn3ccc(C4CC4)nc3=O)CC2)cc(C(F)(F)F)n1 [Example 94, 4-(2-tert-Butyl-6-trifluoromethylpyrimidin-4-yl)-1-[4-(4-cyclopropyl-2-oxo-2H-pyrimidin-1-yl)butyl]piperazin-1-ium acetate]
55	2.4 nM	Cc1cccc(N2CCN(CCCCn3cc(C)c(=O)[nH]c3=O)CC2)c1C [Example 128, 1-{4-[4-(2,3-Dimethylphenyl)piperazin-1-yl]butyl}-5-methyl-1H-pyrimidine-2,4-dione]
59	1.62 nM	CCCc1cc(N2CCN(CCCCn3ccc(C(C)C)nc3=O)CC2)nc(C(C)(C)C)n1 [Example 98, 4-(2-tert-Butyl-6-propylpyrimidin-4-yl)-1-[4-(4-isopropyl-2-oxo-2H-pyrimidin-1-yl)butyl]piperazine 1-fumarate]
45	1.5 nM	Cc1cn(CCCCN2CCN(c3ccccc3Cl)CC2)c(=O)[nH]c1=O [Example 127, 1-{4-[4-(2-Chlorophenyl)piperazin-1-yl]butyl}-5-methyl-1H-pyrimidine-2,4-dione]
65	0.46 nM	Cc1cn(CCCCN2CCN(c3cc(Cl)cc(Cl)c3)CC2)c(=O)[nH]c1=O [Example 119, 1-{4-[4-(3,5-Dichlorophenyl)piperazin-1-yl]butyl}-5-methyl-1H-pyrimidine-2,4-dione]
87	0.27 nM	Cc1cn(CCCCN2CCN(c3cccc(Cl)c3Cl)CC2)c(=O)[nH]c1=O [Example 135, 1-{4-[4-(2,3-Dichlorophenyl)piperazin-1-yl]butyl}-5-methyl-1H-pyrimidine-2,4-dione]
